Numbers after ± are expanded uncertainties.
Test: xn = mol fraction of the nth substance listed
Conditions: 298 K, Liquid

ClCCCCCl [1,4-dichlorobutane] + CC(=O)N(C)C
mass density [kg/m3]
Conditions	x2 = 0.0975	x2 = 0.2001	x2 = 0.2996	x2 = 0.4017	x2 = 0.5009	x2 = 0.5981	x2 = 0.6987	x2 = 0.801	x2 = 0.9012
100 kPa	1116.3 ± 4.8	1097.8 ± 4.6	1079.3 ± 4.6	1060 ± 4.5	1040.7 ± 4.5	1021.7 ± 4.6	1001.1 ± 4.6	980 ± 4.7	958.6 ± 4.8
500 kPa	1116.6 ± 4.8	1098.2 ± 4.6	1079.6 ± 4.6	1060.3 ± 4.5	1041 ± 4.5	1022 ± 4.6	1001.3 ± 4.6	980.3 ± 4.7	958.8 ± 4.8
1000 kPa	1117 ± 4.8	1098.6 ± 4.6	1080 ± 4.6	1060.6 ± 4.6	1041.4 ± 4.5	1022.3 ± 4.6	1001.7 ± 4.6	980.6 ± 4.7	959.2 ± 4.8
1500 kPa	1117.4 ± 4.8	1098.9 ± 4.7	1080.3 ± 4.6	1061 ± 4.6	1041.7 ± 4.5	1022.7 ± 4.6	1002 ± 4.6	980.8 ± 4.7	959.5 ± 4.7
2000 kPa	1117.7 ± 4.8	1099.3 ± 4.7	1080.7 ± 4.6	1061.3 ± 4.6	1042 ± 4.5	1023 ± 4.6	1002.3 ± 4.6	981.2 ± 4.7	959.8 ± 4.8
2500 kPa	1118.1 ± 4.8	1099.6 ± 4.7	1081 ± 4.6	1061.7 ± 4.6	1042.4 ± 4.5	1023.3 ± 4.6	1002.8 ± 4.6	981.6 ± 4.7	960.1 ± 4.8
3000 kPa	1118.5 ± 4.8	1100.1 ± 4.7	1081.4 ± 4.6	1062.1 ± 4.6	1042.7 ± 4.5	1023.7 ± 4.6	1003.1 ± 4.6	982 ± 4.7	960.4 ± 4.8
3500 kPa	1118.9 ± 4.8	1100.4 ± 4.7	1081.8 ± 4.6	1062.4 ± 4.6	1043.1 ± 4.6	1024 ± 4.6	1003.4 ± 4.6	982.2 ± 4.7	960.7 ± 4.8
4000 kPa	1119.3 ± 4.8	1100.8 ± 4.7	1082.1 ± 4.6	1062.8 ± 4.6	1043.4 ± 4.6	1024.4 ± 4.6	1003.7 ± 4.6	982.6 ± 4.7	961 ± 4.8
4500 kPa	1119.6 ± 4.8	1101.2 ± 4.7	1082.5 ± 4.6	1063.2 ± 4.6	1043.7 ± 4.6	1024.8 ± 4.6	1004 ± 4.6	982.9 ± 4.7	961.3 ± 4.8
5000 kPa	1120 ± 4.9	1101.5 ± 4.7	1082.8 ± 4.7	1063.4 ± 4.6	1044.1 ± 4.6	1025 ± 4.6	1004.4 ± 4.6	983.2 ± 4.7	961.6 ± 4.8
5500 kPa	1120.4 ± 4.9	1101.9 ± 4.7	1083.2 ± 4.7	1063.8 ± 4.6	1044.5 ± 4.6	1025.4 ± 4.6	1004.7 ± 4.7	983.4 ± 4.7	961.9 ± 4.8
6000 kPa	1120.7 ± 4.9	1102.2 ± 4.7	1083.6 ± 4.7	1064.2 ± 4.6	1044.9 ± 4.6	1025.6 ± 4.6	1005 ± 4.6	983.8 ± 4.7	962.2 ± 4.8
6500 kPa	1121.1 ± 4.9	1102.6 ± 4.7	1083.9 ± 4.7	1064.5 ± 4.6	1045.2 ± 4.6	1026 ± 4.6	1005.3 ± 4.6	984.1 ± 4.7	962.6 ± 4.8
7000 kPa	1121.5 ± 4.9	1102.9 ± 4.8	1084.3 ± 4.7	1064.9 ± 4.6	1045.5 ± 4.6	1026.4 ± 4.6	1005.7 ± 4.7	984.4 ± 4.7	962.9 ± 4.8
7500 kPa	1121.9 ± 4.9	1103.2 ± 4.8	1084.6 ± 4.7	1065.2 ± 4.6	1045.8 ± 4.6	1026.7 ± 4.6	1006 ± 4.6	984.8 ± 4.7	963.1 ± 4.8
8000 kPa	1122.2 ± 4.9	1103.6 ± 4.8	1085 ± 4.7	1065.5 ± 4.6	1046.2 ± 4.6	1027 ± 4.6	1006.3 ± 4.7	985 ± 4.7	963.5 ± 4.8
8500 kPa	1122.5 ± 5	1104 ± 4.8	1085.4 ± 4.7	1065.9 ± 4.6	1046.6 ± 4.6	1027.3 ± 4.6	1006.6 ± 4.6	985.4 ± 4.7	963.7 ± 4.8
9000 kPa	1123 ± 5	1104.3 ± 4.8	1085.7 ± 4.7	1066.2 ± 4.6	1046.9 ± 4.6	1027.7 ± 4.6	1007 ± 4.7	985.6 ± 4.7	964 ± 4.8
9500 kPa	1123.2 ± 5	1104.7 ± 4.8	1086 ± 4.7	1066.6 ± 4.6	1047.2 ± 4.6	1028 ± 4.6	1007.3 ± 4.7	986 ± 4.7	964.3 ± 4.8
10000 kPa	1123.7 ± 5	1105.2 ± 4.8	1086.4 ± 4.7	1067 ± 4.6	1047.6 ± 4.6	1028.5 ± 4.6	1007.6 ± 4.7	986.3 ± 4.7	964.7 ± 4.8
10500 kPa	1124.1 ± 5	1105.5 ± 4.8	1086.8 ± 4.7	1067.3 ± 4.6	1047.9 ± 4.6	1028.8 ± 4.6	1008 ± 4.7	986.7 ± 4.7	965 ± 4.8
11000 kPa	1124.4 ± 5	1105.8 ± 4.8	1087.2 ± 4.7	1067.6 ± 4.7	1048.2 ± 4.6	1029.1 ± 4.6	1008.3 ± 4.7	986.9 ± 4.7	965.2 ± 4.8
11500 kPa	1124.7 ± 5	1106.2 ± 4.8	1087.5 ± 4.7	1068 ± 4.7	1048.6 ± 4.6	1029.5 ± 4.6	1008.6 ± 4.7	987.3 ± 4.7	965.6 ± 4.8
11900 kPa	–	–	–	–	–	–	–	987.6 ± 4.7	–
12000 kPa	1125.1 ± 5	1106.6 ± 4.9	1087.8 ± 4.8	1068.3 ± 4.7	1048.9 ± 4.6	1029.8 ± 4.6	1008.9 ± 4.7	–	965.9 ± 2.9
12500 kPa	1125.5 ± 5.1	1106.8 ± 4.9	1088.2 ± 4.7	1068.7 ± 4.7	1049.2 ± 4.6	1030.1 ± 4.6	1009.3 ± 4.7	987.9 ± 4.7	966.3 ± 4.8
13000 kPa	1125.8 ± 5.1	1107.2 ± 4.9	1088.5 ± 4.8	1069 ± 4.7	1049.6 ± 4.6	1030.4 ± 4.6	1009.6 ± 4.7	988.2 ± 4.7	966.5 ± 4.8
13400 kPa	–	–	–	1069.3 ± 4.7	1049.9 ± 4.6	–	–	–	–
13500 kPa	1126.1 ± 5.1	1107.6 ± 4.9	1088.9 ± 4.8	–	–	1030.7 ± 4.6	1009.9 ± 4.7	988.5 ± 4.7	966.8 ± 4.8
14000 kPa	1126.5 ± 5.1	1107.9 ± 4.9	1089.1 ± 4.8	1069.7 ± 4.7	1050.3 ± 4.6	1031 ± 4.6	1010.2 ± 4.7	988.8 ± 4.7	967.1 ± 4.8
14500 kPa	1126.8 ± 5.1	1108.2 ± 4.9	1089.5 ± 4.8	1070 ± 4.7	1050.6 ± 4.6	1031.4 ± 4.6	1010.5 ± 4.7	989.1 ± 4.7	967.4 ± 4.8
15000 kPa	1127.2 ± 5.1	1108.6 ± 4.9	1089.9 ± 4.8	1070.3 ± 4.7	1050.9 ± 4.6	1031.6 ± 4.7	1010.8 ± 4.7	989.4 ± 4.7	967.7 ± 4.8
15500 kPa	1127.6 ± 5.1	1108.9 ± 4.9	1090.2 ± 4.8	1070.6 ± 4.7	1051.2 ± 4.6	1032 ± 4.7	1011.1 ± 4.7	989.7 ± 4.7	968 ± 4.8
16000 kPa	1127.9 ± 5.1	1109.3 ± 4.9	1090.5 ± 4.8	1071 ± 4.7	1051.5 ± 4.6	1032.3 ± 4.7	1011.4 ± 4.7	990 ± 4.8	968.2 ± 4.8
16400 kPa	1128.2 ± 5.2	–	–	–	1051.8 ± 4.7	–	–	–	–
16500 kPa	–	1109.6 ± 4.9	1090.9 ± 4.8	1071.4 ± 4.7	–	1032.6 ± 4.7	1011.7 ± 4.7	990.2 ± 4.8	968.5 ± 4.8
17000 kPa	1128.6 ± 5.2	1109.9 ± 5	1091.2 ± 4.8	1071.6 ± 4.7	1052.1 ± 4.6	1032.9 ± 4.7	1012 ± 4.7	990.5 ± 4.8	968.7 ± 4.8
17500 kPa	1129 ± 5.2	1110.3 ± 5	1091.6 ± 4.8	1072 ± 4.7	1052.4 ± 4.7	1033.2 ± 4.7	1012.4 ± 4.7	990.8 ± 4.8	969.1 ± 4.8
17900 kPa	–	–	–	–	1052.7 ± 4.7	–	–	–	–
18000 kPa	1129.3 ± 5.2	1110.6 ± 5	1091.8 ± 4.8	1072.3 ± 4.7	–	1033.5 ± 4.7	1012.7 ± 4.7	991.1 ± 4.8	969.3 ± 4.8
18500 kPa	1129.6 ± 5.2	1110.9 ± 5	1092.2 ± 4.8	1072.6 ± 4.7	1053.1 ± 4.7	1033.8 ± 4.7	1013 ± 4.7	991.4 ± 4.8	969.6 ± 4.8
19000 kPa	1130 ± 5.2	1111.3 ± 5	1092.5 ± 4.9	1073 ± 4.7	1053.5 ± 4.7	1034.2 ± 4.7	1013.3 ± 4.7	991.8 ± 4.8	969.9 ± 4.9
19500 kPa	1130.3 ± 5.2	1111.7 ± 5	1092.8 ± 4.9	1073.3 ± 4.7	1053.8 ± 4.7	1034.5 ± 4.7	1013.6 ± 4.7	992 ± 4.8	970.1 ± 4.8
20000 kPa	1130.8 ± 5.3	1112 ± 5	1093.3 ± 4.9	1073.8 ± 4.8	1054.1 ± 4.7	1034.8 ± 4.7	1014 ± 4.7	992.4 ± 4.8	970.5 ± 4.9

From the NIST ThermoML archive (doi:10.1021/je700339f)
